What was measured:
[1] = molecular target: T1, hNav1.1 (Homo sapiens, UniProt P35498); experiment: Two-electrode voltage-clamp recording of hNav1.1 gating in Xenopus oocytes; type: cell-based; settings: for effect on hNav1.1 opening (G-V relationship) / effect on hNav1.1 persistent current: 100 μM; for effect on hNav1.1 opening (G-V relationship): significance at p<0.005; for Activation (V1/2): hNav1.1 + β1 in Xenopus oocytes, ≤1% DMSO, DMSO control −38.2 ± 1.9 mV; for Activation (V1/2) / Inactivation (V1/2): 100 μM drug; for Inactivation (V1/2): hNav1.1, steady-state inactivation, DMSO control −49.4 ± 0.3 mV; for effect on hNav1.1 persistent current: analyzed at the end of a 50 ms test pulse
T1 construct: host or cells: Xenopus oocytes (cRNA injection)

[2] = molecular target: T2, hNav1.3 (Homo sapiens, UniProt Q9NY46); experiment: Two-electrode voltage-clamp recording of hNav1.3 gating in Xenopus oocytes; type: cell-based; settings: for Activation (V1/2): hNav1.3, 100 μM drug, DMSO control −24.7 ± 1.6 mV; for Inactivation (V1/2): hNav1.3, steady-state inactivation, 100 μM drug, DMSO control −52.8 ± 0.9 mV
T2 construct: host or cells: Xenopus oocytes (cRNA injection)

[3] = molecular target: T3, hNav1.6 (Homo sapiens, UniProt Q9UQD0); experiment: Two-electrode voltage-clamp recording of hNav1.6 gating in Xenopus oocytes; type: cell-based; settings: for Activation (V1/2): hNav1.6, 100 μM drug, DMSO control −26.7 ± 1.1 mV; for Inactivation (V1/2): hNav1.6, steady-state inactivation, 100 μM drug, DMSO control −65.1 ± 0.8 mV
T3 construct: host or cells: Xenopus oocytes (cRNA injection)

[4] = molecular target: T4, α1/β2/γ2 GABAA receptor (Homo sapiens, UniProt P14867+P18507+P47870); experiment: GABAA receptor activation in oocytes; type: cell-based; settings: 100 μM, oocytes at −70 mV; 5 μM muscimol as positive control
T4 construct: expressed in transfected cells; host or cells: oocytes
T4 sequence (P14867 28-456): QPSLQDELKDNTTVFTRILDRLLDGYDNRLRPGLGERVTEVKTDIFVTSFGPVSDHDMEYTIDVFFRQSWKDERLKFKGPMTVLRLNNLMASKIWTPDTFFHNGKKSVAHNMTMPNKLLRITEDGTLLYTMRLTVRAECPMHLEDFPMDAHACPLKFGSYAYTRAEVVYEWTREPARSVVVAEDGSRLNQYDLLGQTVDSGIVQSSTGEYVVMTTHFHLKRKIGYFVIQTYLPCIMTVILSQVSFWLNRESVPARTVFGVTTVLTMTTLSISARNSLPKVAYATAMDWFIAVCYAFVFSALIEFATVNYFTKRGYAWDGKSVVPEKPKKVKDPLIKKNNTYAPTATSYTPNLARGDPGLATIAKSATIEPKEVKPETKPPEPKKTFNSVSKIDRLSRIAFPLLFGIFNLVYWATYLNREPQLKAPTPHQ
T4 sequence (P47870 25-512 limits assumed): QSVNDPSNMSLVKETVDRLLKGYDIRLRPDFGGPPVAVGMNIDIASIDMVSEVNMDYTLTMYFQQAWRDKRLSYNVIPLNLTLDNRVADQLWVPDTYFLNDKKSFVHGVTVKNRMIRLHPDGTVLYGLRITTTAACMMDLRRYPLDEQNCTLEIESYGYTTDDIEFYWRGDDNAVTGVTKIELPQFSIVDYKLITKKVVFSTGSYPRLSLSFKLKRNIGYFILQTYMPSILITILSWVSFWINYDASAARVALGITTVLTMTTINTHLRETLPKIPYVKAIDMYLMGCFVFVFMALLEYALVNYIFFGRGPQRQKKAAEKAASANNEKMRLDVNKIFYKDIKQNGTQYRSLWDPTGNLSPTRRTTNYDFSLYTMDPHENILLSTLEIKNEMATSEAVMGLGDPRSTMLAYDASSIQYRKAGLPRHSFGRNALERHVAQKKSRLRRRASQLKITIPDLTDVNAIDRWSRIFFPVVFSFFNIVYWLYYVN
T4 sequence (P18507 40-475): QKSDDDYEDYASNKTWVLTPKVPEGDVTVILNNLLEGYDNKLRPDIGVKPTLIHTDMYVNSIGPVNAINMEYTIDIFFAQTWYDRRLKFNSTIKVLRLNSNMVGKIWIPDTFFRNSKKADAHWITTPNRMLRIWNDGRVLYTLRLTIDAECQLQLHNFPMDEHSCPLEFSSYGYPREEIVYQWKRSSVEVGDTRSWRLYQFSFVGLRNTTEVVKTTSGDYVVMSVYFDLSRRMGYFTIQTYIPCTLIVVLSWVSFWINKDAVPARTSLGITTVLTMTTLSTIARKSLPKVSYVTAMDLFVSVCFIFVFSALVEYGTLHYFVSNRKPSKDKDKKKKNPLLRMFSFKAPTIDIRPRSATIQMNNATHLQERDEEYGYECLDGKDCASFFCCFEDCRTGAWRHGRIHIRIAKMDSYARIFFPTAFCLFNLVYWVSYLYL
Source text: Oocytes were kept at −70 mV throughout the experiment.

[5] = cited from earlier work
[6] = molecular target: T5, hNav1.2 (Homo sapiens, UniProt Q99250); experiment: Two-electrode voltage-clamp recording of hNav1.2 gating in Xenopus oocytes; type: cell-based; settings: for Activation (V1/2): hNav1.2, 100 μM drug, DMSO control −31.7 ± 1.2 mV; for Inactivation (V1/2): hNav1.2, steady-state inactivation, 100 μM drug, DMSO control −59.7 ± 0.4 mV
T5 construct: host or cells: Xenopus oocytes (cRNA injection)

[7] = system: rat hippocampal neurons; experiment: Action potential threshold recordings in hippocampal neurons; type: cell-based; settings: 100 μM Compound B
Protocol: Action potential threshold recordings in hippocampal neurons. Hippocampal neurons were dissected from Sprague Dawley rat embryos at embryonic day 18. Cells were treated with papain (Worthington Biochemical), dissociated with a pipette and plated over coverslips coated with collagen (Life Technologies) and poly-D-Lysine (Sigma-Aldrich). Astrocyte beds were prepared at a density of 80,000 cells/ml and cultured in DMEM (Life Technologies) with 10% Fetal Bovine Serum, 6 mM glutamine for 14 days in 5% CO2 at 37° C. Total medium was changed every week. Neurons were plated over confluent astrocyte beds at a density of 150,000 cells/ml and cultured for 3 weeks in Neurobasal media (Life Technologies) supplemented with B27 and 2 mM glutaMAX. Half of the media was changed every 3-4 days. Cells were treated for 3 hours with compound B in 0.3% DMSO or control (media containing 0.3% DMSO) before recording. Coverslips were transferred to a chamber perfused at 2 ml/minute at 32° C. with ACSF containing (in mM): 140 NaCl, 5 KCl, 2 CaCl2, 2 MgCl2, 10 HEPES, and 10 Glucose (pH 7.3 adjusted with NaOH). […] Action potential thresholds were measured by a series of 100 ms, 10 pA depolarizing current injections. At the minimal current injection needed to elicit an action potential, firing threshold was determined by calculating the potential at which the rate of rise crossed 40 V/s, using AxoGraph X software. […]

[8] = system: 6 Hz psychomotor seizures in male Crl:CF1 mice; experiment: 6 Hz psychomotor seizure induction; type: in vivo, mouse; settings: 17 mA
Protocol: (§1) Animal husbandry and drug administration. Male Crl:CF1 mice (10-12 weeks old, Charles River) were housed under a 12 hour light-dark cycle with free access to food and water and all experiments were carried out between 10 am and 4 pm. 1-[phenyl-methyl]-1H-1,2,3-triazole-4-carboxamide-5-methyl (Compound B) (Sigma Aldrich) was suspended in a 40% solution of cyclodextrin (Sigma Aldrich) in sterile saline (0.9%) and 15 minutes prior to each seizure induction paradigm, 75 mg/kg of compound B was administered via intraperitoneal injection (ip) injection. Vehicle treated animals were similarly administrated 40% cyclodextrin and served as the controls for each experiment. The Emory University Institutional Animal Care and Use Committee approved all experimental protocols involving mice.
6 Hz psychomotor seizure induction. Topical anesthetic (0.5% tetracaine hydrochloride ophthalmic solution) was applied to the cornea 30 minutes before testing. Fifteen minutes prior to seizure induction, mice were administrated vehicle or compound B (n=12 per group). Each mouse was manually restrained and corneal stimulation (0.2 ms pulse, 6 Hz, 3s) was performed at a current intensity of 17 mA (ECT Unit 57800; Ugo Basile, Comerio Italy). […] The mice were randomized into two groups and in the first trial one group received the vehicle whereas the other was administered compound B. The second trial was performed one week later with each group receiving the opposite treatment.
(§2) Statistical analysis. A Student's t-test was used to identify statistically significant differences in latencies between vehicle- and compound B-treated groups for each seizure phenotype following administration of flurothyl and picrotoxin. […] All data are presented as the mean±s.e.m.; p values<0.05 were considered significant.

[9] = system: picrotoxin-induced seizures in male Crl:CF1 mice; experiment: Picrotoxin seizure induction; type: in vivo, mouse
Protocol: as §1
Seizure induction paradigms and analyses. Picrotoxin seizure induction—15 minutes prior to i.p. injection of picrotoxin (10 mg/kg, Sigma Aldrich), mice were administered vehicle or compound B (n=12 per group). Latencies to the first myoclonic jerk, forelimb clonus, and generalized tonic-clonic seizure were compared between compound B and vehicle-treated mice. The myoclonic jerk is characterized by a sudden jerk of the upper body whereas forelimb clonus involves rapid movement of the forelimbs for at least 5s. Finally, the generalized tonic-clonic seizure involves the loss of postural control with rapid movement of the limbs for at least 5s.
as §2

[10] = system: flurothyl-induced seizures in male Crl:CF1 mice; experiment: Flurothyl seizure induction; type: in vivo, mouse; settings: 75 mg/kg ip
Protocol: as §1
Flurothyl Seizure induction. Latencies to flurothyl-induced seizures were determined as previously described (Neurobiol Dis 49C, 211-220 (2012)). Briefly, flurothyl (2,2,2-trifluroethylether; Sigma Aldrich) was dispensed at a rate of 20 μl/minute into a Plexiglas chamber and latencies to three behavioral phenotypes were compared between vehicle-treated and compound B-treated (75 mg/kg) mice (n=12 per group): 1) the first myoclonic jerk, 2) a generalized tonic-clonic seizure, and 3) a generalized tonic-clonic seizure with tonic extension. Similar to picrotoxin-mediated seizure induction, the myoclonic jerk is the first observable behavioral phenotype followed by the generalized tonic-clonic seizure which is characterized by a loss of postural control with rapid movement of all four limbs for at least 5s. Lastly, the generalized tonic-clonic seizure with tonic hind limb extension involves the loss of postural control and rapid movement of all four limbs followed by downward extension of the limbs parallel to the body.
as §2

Row | Structure (SMILES) | effect on hNav1.1 opening (G-V relationship) [1] | Activation (V1/2) [1] [mV] | Inactivation (V1/2) [1] [mV] | effect on hNav1.1 persistent current [1] | Activation (V1/2) [2] [mV] | Inactivation (V1/2) [2] [mV] | Activation (V1/2) [3] [mV] | Inactivation (V1/2) [3] [mV] | activation of α1/β2/γ2 GABAA receptor (inward currents) [4] | Activation (V1/2) [6] [mV] | Inactivation (V1/2) [6] [mV] | further results
1 | OCc1cn(Cc2cccc(F)c2)nn1 [Compound C, 1-[(3-fluorophenyl)methyl]-1H-1,2,3-Triazole-4-hydroxymethyl] | no longer affects hNav1.1 opening | −38.4 ± 1.3 | −49.2 ± 0.6 | – | – | – | – | – | – | – | – | –
2 | NC(=O)c1nnn(Cc2cccc(F)c2)c1N [Compound A, 1-[(3-fluorophenyl)methyl]-1H-1,2,3-Triazole-4-carboxamide-5-amine] | clearly inhibit hNav1.1 opening | −30.8 ± 1.0 | −50.5 ± 1.2 | neither of these compounds influences | – | – | – | – | – | – | – | –
3 | NC(=O)c1cn(Cc2c(F)cccc2F)nn1 [Rufinamide, 1-[(2,6-difluorophenyl)methyl]-1H-1,2,3-Triazole-4-carboxamide, reference compound] | dramatic depolarizing shift | −30.6 ± 0.9 | – | did not alter | −24.5 ± 2.4 | −52.6 ± 1.6 | −28.1 ± 0.8 | −60.0 ± 0.7 | do not activate | −29.5 ± 1.2 | −57.7 ± 0.5 | alteration of the midpoint of hNav1.6 channel availability ([3]; hNav1.6, 100 μM rufinamide): about +5 mV; solubility in DMSO ([5]; DMSO): up to 9 mg/ml; solubility in water ([5]; water): slightly soluble
4 | NC(=O)c1nnn(Cc2ccc(F)cc2)c1N [Compound D, 1-[(4-fluorophenyl)methyl]-1H-1,2,3-Triazole-4-carboxamide-5-amine] | not significant | −32.5 ± 2.3 | −49.8 ± 1.6 | – | – | – | – | – | – | – | – | –
5 | Cc1c(C(N)=O)nnn1Cc1ccccc1 [Compound B, 1-[phenyl-methyl]-1H-1,2,3-Triazole-4-carboxamide-5-methyl] | clearly inhibit hNav1.1 opening | −27.4 ± 1.0 | −49.4 ± 0.3 | neither of these compounds influences | −25.8 ± 1.4 | −50.0 ± 0.8 | −23.8 ± 1.9 | −62.6 ± 0.7 | do not activate | −23.6 ± 1.1 | −53.6 ± 1.2 | average action potential (firing) threshold ([7]; potential at which rate of rise crosses 40 V/s, control −43.3±2.4 mV): −27.8±1.6 mV; current injection needed to elicit an action potential ([7]; control 20 pA): 80 pA; animals exhibiting behavioral seizures ([8]; 75 mg/kg ip, n=7/24, vehicle 92%): 29%; seizure severity (modified Racine scale) vs vehicle ([8]; p<0.0001): dramatically less severe; reduction in the number of mice exhibiting seizures ([8]; vs vehicle, p<0.0001): 63%; effect on hNav1.1 persistent current ([1]; listed as compound B): did not alter; depolarizing shift in channel activation voltage ([1]; hNav1.1, 100 μM): ~+11 mV; Entry into SI (t) ([1]; hNav1.1 slow inactivation, time-dependence of entry, DMSO 5.6 ± 0.3 s): 5.5 ± 0.4 s; Voltage-dependence of SI (V), V1/2 ([1]; hNav1.1 slow inactivation, DMSO −43.7 ± 1.6 mV): −43.2 ± 1.3 mV; average latency to the first generalized tonic-clonic seizure (GTCS) ([9]; picrotoxin 10 mg/kg, Compound B 75 mg/kg ip 15 min before, vehicle 1006±106 s): 1693 ± 315 s; frequency of the behavioral seizures vs vehicle ([9]; picrotoxin, 75 mg/kg ip): no difference; increase of average latency to first GTCS vs vehicle ([9]; picrotoxin, 75 mg/kg ip, p=0.03): 41%; average latency to forelimb clonus (FC) vs vehicle ([9]; picrotoxin, 75 mg/kg ip, p=0.3): no statistically significant differences; average latency to the first myoclonic jerk (MJ) vs vehicle ([9]; picrotoxin, 75 mg/kg ip, p=0.4): no statistically significant differences; increase of average latency to GTCS+ vs vehicle ([10]; p<0.0001): 56%; increase of average latency to first GTCS vs vehicle ([10]; p<0.0001): 43%; average latency to the MJ vs vehicle ([10]; p=0.6): comparable; average latency to the first GTCS ([10]; vehicle 281±19 s): 652 ± 48 s; average latency to GTCS with hind limb extension (GTCS+) ([10]; vehicle 652±38 s): 1155 ± 89 s

From patent US20180050994A1 (THE JOHNS HOPKINS UNIVERSITY, priority 2013, published 2018)
